Test results as given in PubChem BioAssay AID1745844 (Carcinogenic Potency Database (CPDB), 2022).
Activity calls are given as the source filed them. No rule for the calls is given here.

Test system: rodent lifetime carcinogenesis bioassay, tumor incidence TD50
Assay: carcinogenic potency in animals, long-term in vivo studies, CPDB compilation (AID 1745844)
[1] = rat, strain Fischer 344, males, in feed, site: any site (literature study), lesion: several types, types named in the paper, dosed 103 weeks, study length 105 weeks
[2] = rat, strain Fischer 344, males, in feed, site: liver, lesion: hepatocellular adenoma + hepatocellular carcinoma + neoplastic nodule, dosed 103 weeks, study length 105 weeks

With `CC` the carcinogen call (mouse, strain B6C3F1, females, in feed, site: any site (literature study), lesion: several types, types named in the paper, dosed 103 weeks, study length 105 weeks) was “negative (inactive)”, the TD50 (mouse, strain B6C3F1, females, in feed, site: forestomach, lesion: several types, types named in the paper, dosed 96 weeks, study length 106 weeks) was 111000 mg/kg/day (inactive) and the TD50 (mouse, strain B6C3F1, females, in feed, site: liver, lesion: hepatocellular adenoma + hepatocellular carcinoma + neoplastic nodule, dosed 103 weeks, study length 105 weeks) was 31100 mg/kg/day. For the same molecule, the carcinogen call (mouse, strain B6C3F1, females, in feed, site: liver, lesion: several types, types named in the paper, dosed 96 weeks, study length 106 weeks) was “negative (inactive)”, the TD50 (mouse, strain B6C3F1, females, in feed, site: lung, lesion: alveolar/bronchiolar adenoma + alveolar/bronchiolar carcinoma, dosed 103 weeks, study length 105 weeks) was 24700 mg/kg/day and the carcinogen call (mouse, strain B6C3F1, females, in feed, site: lung, lesion: several types, types named in the paper, dosed 96 weeks, study length 106 weeks) was “negative (inactive)”. For the same molecule, the TD50 (mouse, strain B6C3F1, males, in feed, site: all sites, lesion: hemangioma, dosed 103 weeks, study length 105 weeks) was 80800 mg/kg/day (inactive), the TD50 (mouse, strain B6C3F1, males, in feed, site: any site (literature study), lesion: several types, types named in the paper, dosed 103 weeks, study length 105 weeks) was 46000 mg/kg/day and the TD50 (mouse, strain B6C3F1, males, in feed, site: forestomach, lesion: squamous-cell papilloma, dosed 96 weeks, study length 106 weeks) was 240000 mg/kg/day (inactive). The carcinogen call (mouse, strain B6C3F1, males, in feed, site: liver, lesion: several types, types named in the paper, dosed 96 weeks, study length 106 weeks) was “negative (inactive)”, the carcinogen call (mouse, strain B6C3F1, males, in feed, site: lung, lesion: several types, types named in the paper, dosed 96 weeks, study length 106 weeks) was “negative (inactive)” and the TD50 (rat, strain Fischer 344, females, in feed, site: any site (literature study), lesion: several types, types named in the paper, dosed 103 weeks, study length 105 weeks) was 8310 mg/kg/day (inactive). For the same molecule, the TD50 [1] was 7970 mg/kg/day (inactive) and the TD50 [2] was 33500 mg/kg/day.
`C1CCC(C(CC2CCCCN2)C2CCCCC2)CC1` (stereo unspecified) was tested, and the carcinogen call (rat, strain Sprague-Dawley, females, in feed, site: liver, lesion: one or several types, types not named, dosed 52 weeks, study length 52 weeks) was “negative (inactive)”, the carcinogen call (rat, strain Sprague-Dawley, females, in feed, site: liver, lesion: one or several types, types not named, dosed 52 weeks, study length 56 weeks) was “negative (inactive)” and the carcinogen call (rat, strain Sprague-Dawley, males, in feed, site: liver, lesion: one or several types, types not named, dosed 52 weeks, study length 52 weeks) was “negative (inactive)”. For the same molecule, the carcinogen call (rat, strain Sprague-Dawley, males, in feed, site: liver, lesion: one or several types, types not named, dosed 52 weeks, study length 56 weeks) was “negative (inactive)”.
`O=P(OCC(Br)CBr)(OCC(Br)CBr)OCC(Br)CBr` (stereo unspecified) gave a TD50 (mouse, strain B6C3F1, females, in feed, site: any site (literature study), lesion: several types, types named in the paper, dosed 103 weeks, study length 104 weeks) of 148 mg/kg/day, a TD50 (mouse, strain B6C3F1, females, in feed, site: liver + lung + stomach, lesion: hepatocellular adenoma + hepatocellular carcinoma + alveolar/bronchiolar adenoma + alveolar/bronchiolar carcinoma + squamous-cel, dosed 103 weeks, study length 104 weeks) of 80.1 mg/kg/day and a TD50 (mouse, strain B6C3F1, females, in feed, site: liver, lesion: hepatocellular adenoma + hepatocellular carcinoma + neoplastic nodule, dosed 103 weeks, study length 104 weeks) of 95 mg/kg/day. It also gave a TD50 (mouse, strain B6C3F1, females, in feed, site: liver, lesion: hepatocellular adenoma + hepatocellular carcinoma, dosed 103 weeks, study length 104 weeks) of 95 mg/kg/day, a TD50 (mouse, strain B6C3F1, females, in feed, site: liver, lesion: hepatocellular carcinoma, dosed 103 weeks, study length 104 weeks) of 221 mg/kg/day and a TD50 (mouse, strain B6C3F1, females, in feed, site: lung, lesion: alveolar/bronchiolar adenoma + alveolar/bronchiolar carcinoma, dosed 103 weeks, study length 104 weeks) of 225 mg/kg/day. For the same molecule, the TD50 (mouse, strain B6C3F1, females, in feed, site: stomach, lesion: squamous-cell carcinoma + squamous-cell papilloma, dosed 103 weeks, study length 104 weeks) was 127 mg/kg/day, the TD50 (mouse, strain B6C3F1, females, in feed, site: stomach, lesion: squamous-cell carcinoma, dosed 103 weeks, study length 104 weeks) was 611 mg/kg/day and the TD50 (mouse, strain B6C3F1, females, in feed, site: uterus, lesion: endometrial stromal polyp, dosed 103 weeks, study length 104 weeks) was 264 mg/kg/day. For the same molecule, the TD50 (mouse, strain B6C3F1, males, in feed, site: any site (literature study), lesion: several types, types named in the paper, dosed 103 weeks, study length 104 weeks) was 2220 mg/kg/day, the TD50 (mouse, strain B6C3F1, males, in feed, site: kidney + lung + stomach, lesion: tubular-cell adenoma + tubular-cell adenocarcinoma + alveolar/bronchiolar adenoma + alveolar/bronchiolar carcinoma + squamous-ce, dosed 103 weeks, study length 104 weeks) was 103 mg/kg/day and the TD50 (mouse, strain B6C3F1, males, in feed, site: kidney, lesion: tubular-cell adenocarcinoma, dosed 103 weeks, study length 104 weeks) was 822 mg/kg/day. It also gave a TD50 (mouse, strain B6C3F1, males, in feed, site: kidney, lesion: tubular-cell adenoma + tubular-cell adenocarcinoma, dosed 103 weeks, study length 104 weeks) of 256 mg/kg/day, a TD50 (mouse, strain B6C3F1, males, in feed, site: liver, lesion: hepatocellular adenoma + hepatocellular carcinoma + neoplastic nodule, dosed 103 weeks, study length 104 weeks) of 172 mg/kg/day and a TD50 (mouse, strain B6C3F1, males, in feed, site: lung, lesion: alveolar/bronchiolar adenoma + alveolar/bronchiolar carcinoma, dosed 103 weeks, study length 104 weeks) of 211 mg/kg/day. It also gave a TD50 (mouse, strain B6C3F1, males, in feed, site: lung, lesion: alveolar/bronchiolar carcinoma, dosed 103 weeks, study length 104 weeks) of 449 mg/kg/day, a TD50 (mouse, strain B6C3F1, males, in feed, site: stomach, lesion: squamous-cell carcinoma + squamous-cell papilloma, dosed 103 weeks, study length 104 weeks) of 197 mg/kg/day and a TD50 (rat, strain Fischer 344, females, in feed, site: any site (literature study), lesion: several types, types named in the paper, dosed 103 weeks, study length 104 weeks) of 23 mg/kg/day. The TD50 (rat, strain Fischer 344, females, in feed, site: kidney, lesion: tubular-cell adenoma, dosed 103 weeks, study length 104 weeks) was 13.8 mg/kg/day, the TD50 (rat, strain Fischer 344, females, in feed, site: liver, lesion: hepatocellular adenoma + hepatocellular carcinoma + neoplastic nodule, dosed 103 weeks, study length 104 weeks) was 2820 mg/kg/day and the TD50 (rat, strain Fischer 344, females, in feed, site: ovary, lesion: Sertoli-cell tumor, dosed 103 weeks, study length 104 weeks) was 66.4 mg/kg/day. It also gave a TD50 (rat, strain Fischer 344, males, by gavage, site: colon, lesion: polypoid adenoma, dosed 52 weeks, study length 52 weeks) of 13.4 mg/kg/day, a TD50 (rat, strain Fischer 344, males, by gavage, site: kidney, lesion: adenocarcinoma, dosed 52 weeks, study length 52 weeks) of 54.8 mg/kg/day and a TD50 (rat, strain Fischer 344, males, in feed, site: any site (literature study), lesion: several types, types named in the paper, dosed 103 weeks, study length 104 weeks) of 8.31 mg/kg/day. It also gave a TD50 (rat, strain Fischer 344, males, in feed, site: kidney, lesion: tubular-cell adenocarcinoma, dosed 103 weeks, study length 104 weeks) of 63.3 mg/kg/day, a TD50 (rat, strain Fischer 344, males, in feed, site: kidney, lesion: tubular-cell adenoma + tubular-cell adenocarcinoma, dosed 103 weeks, study length 104 weeks) of 1.57 mg/kg/day and a TD50 (rat, strain Fischer 344, males, in feed, site: kidney, lesion: tubular-cell adenoma, dosed 103 weeks, study length 104 weeks) of 1.57 mg/kg/day. It also gave a TD50 (rat, strain Fischer 344, males, in feed, site: liver, lesion: hepatocellular adenoma + hepatocellular carcinoma + neoplastic nodule, dosed 103 weeks, study length 104 weeks) of 34.3 mg/kg/day, a TD50 (rat, strain Fischer 344, males, in feed, site: liver, lesion: hepatocellular carcinoma + neoplastic nodule, dosed 103 weeks, study length 104 weeks) of 34.3 mg/kg/day and a TD50 (rat, strain Fischer 344, males, in feed, site: preputial gland, lesion: adenocarcinoma, NOS + adenoma, NOS + carcinoma, NOS, dosed 103 weeks, study length 104 weeks) of 20.3 mg/kg/day.
In the case of `CC(=O)c1ccc(S(=O)(=O)NC(=O)NC2CCCCC2)cc1`, the carcinogen call (mouse, strain B6C3F1, females, in feed, site: any site (literature study), lesion: several types, types named in the paper, dosed 103 weeks, study length 107 weeks) is reported as “negative (inactive)”, the TD50 (mouse, strain B6C3F1, males, in feed, site: any site (literature study), lesion: several types, types named in the paper, dosed 103 weeks, study length 107 weeks) is reported as 2370 mg/kg/day (inactive) and the carcinogen call (rat, strain Fischer 344, females, in feed, site: any site (literature study), lesion: several types, types named in the paper, dosed 103 weeks, study length 106 weeks) is reported as “negative (inactive)”. The TD50 (rat, strain Fischer 344, males, in feed, site: all sites, lesion: leukemia, dosed 103 weeks, study length 105 weeks) was 527 mg/kg/day (inactive), the TD50 [1] was 2120 mg/kg/day and the TD50 [2] was 16600 mg/kg/day.
With `C=Cc1cccc[n+]1[O-]` the TD50 (mouse, strain ICI, females, i.v., site: any site (literature study), lesion: benign tumor, dosed 75 weeks, study length 104 weeks) was 1690 mg/kg/day (inactive), the carcinogen call (mouse, strain ICI, females, i.v., site: any site (literature study), lesion: malignant tumor, dosed 75 weeks, study length 104 weeks) was “negative (inactive)” and the carcinogen call (mouse, strain ICI, females, i.v., site: lung, lesion: adenoma, dosed 75 weeks, study length 104 weeks) was “negative (inactive)”. For the same molecule, the carcinogen call (rat, strain Wistar, females, i.v., site: any site (literature study), lesion: benign tumor, dosed 75 weeks, study length 104 weeks) was “negative (inactive)” and the TD50 (rat, strain Wistar, females, i.v., site: any site (literature study), lesion: malignant tumor, dosed 75 weeks, study length 104 weeks) was 175 mg/kg/day (inactive).
In the case of `Cc1c(O)cc2c(c1C)OC(C)(CCCC(C)CCCC(C)CCCC(C)C)CC2` (stereo unspecified), the TD50 (mouse, strain B6C3F1, males, in feed, site: liver, lesion: hepatocellular carcinoma, dosed 96 weeks, study length 96 weeks) is reported as 5220 mg/kg/day and the TD50 (mouse, strain B6C3F1, males, in feed, site: liver, lesion: several types, types named in the paper, dosed 96 weeks, study length 96 weeks) is reported as 3610 mg/kg/day.
For `CCCN(N=O)/C(N)=N/[N+](=O)[O-]`, the TD50 (rat, strain Wistar, males, in drinking water, site: stomach, glandular, lesion: adenocarcinoma, dosed 52 weeks, study length 65 weeks) was 2.85 mg/kg/day, the TD50 (rat, strain Wistar, males, in drinking water, site: stomach, glandular, lesion: adenocarcinoma, dosed 52 weeks, study length 78 weeks) was 2.27 mg/kg/day and the TD50 (rat, strain Wistar, males, in drinking water, site: stomach, glandular, lesion: adenoma, dosed 34 weeks, study length 65 weeks) was 1.9 mg/kg/day. The TD50 (rat, strain Wistar, males, in drinking water, site: stomach, glandular, lesion: adenoma, dosed 52 weeks, study length 65 weeks) was 0.919 mg/kg/day and the TD50 (rat, strain Wistar, males, in drinking water, site: stomach, glandular, lesion: adenoma, dosed 52 weeks, study length 78 weeks) was 2.27 mg/kg/day.
